Test results from EP4603105A1, “PHARMACEUTICAL COMPOSITION CONTAINING CYCLIC COMPOUND HAVING SELECTIVE KRAS INHIBITORY EFFECT AGAINST HRAS AND NRAS” (CHUGAI SEIYAKU KABUSHIKI KAISHA, priority 2022, dated 2024).
pIC50, pKd: −log10 of the molar value. Where a SMILES comes first, the peptide text is derived from it. Bridges are numbered along the chain shown (N, C = ends). [ ]: non-standard residue; d: D form. The star is where a group is joined. hPhe(3-Cl-4-CF3) = N[C@@H](CCc1ccc(C(F)(F)F)c(Cl)c1)C(=O)O; NPrPhe(4-CF3) = CCCN[C@@H](Cc1ccc(C(F)(F)F)cc1)C(=O)O; NMeGly(cPent) = CN[C@H](C(=O)O)C1CCCC1; Aze(3S-Me) = C[C@H]1CN[C@@H]1C(=O)O; NMeD = CN[C@@H](CC(=O)O)C(=O)O; NMeL = CN[C@@H](CC(C)C)C(=O)O; Morpholide = C1CN(*)CCO1; Ac5c = NC1(C(=O)O)CCCC1; Aze = O=C(O)[C@@H]1CCN1; Ac4c = NC1(C(=O)O)CCC1; Sar = CNCC(=O)O

Key:
[1] = molecular target: GDP-bound KRAS wild-type protein (Homo sapiens, UniProt P01116); assay: Binding to KRAS by surface plasmon resonance (SPR), dissociation constant KD
How it was run: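 Biotinylated GDP-bound RAS was captured at about 100–300 RU. Running buffer: HBS pH 7.4, 10 mM MgCl2, 10 µM GDP, 1 mM DTT, 0.01% Tween 20, 4% DMSO.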

HRAS wild-type protein = HRAS wild-type protein (Homo sapiens, UniProt P01112); assay: Binding to HRAS by surface plasmon resonance (SPR), KD and KD ratio to KRAS
How it was run: (§1)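 Affinity is measured by surface plasmon resonance at 30°C against captured, GDP-loaded RAS carrying a biotinylated Avi tag. Compounds are titrated by single-cycle kinetics, and KD comes from a 1:1 fit.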

[2] = molecular target: GDP-bound NRAS wild-type protein (Homo sapiens, UniProt P01111); assay: Binding to NRAS by surface plasmon resonance (SPR), KD and KD ratio to KRAS
How it was run: as §1

[3] = test system: human lung cancer strain NCI-H441; type: cell-based
How it was run: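 Readout: […] after the ATP-based reagent. Compound: serial dilutions in dimethyl sulfoxide.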

[4] = Single Cycle Kinetics, 1:1 binding model
[5] = ratio of KD for HRAS wild-type protein to KD for KRAS
[6] = ratio of KD for GDP-bound NRAS wild-type protein to KD for KRAS
[7] = ratio of the KD value with respect to HRAS wild-type protein to the KD value with respect to KRAS
[8] = ratio of the KD value with respect to GDP-bound NRAS wild-type protein to the KD value with respect to KRAS

Chain of GDP-bound NRAS wild-type protein (P01111 whole entry): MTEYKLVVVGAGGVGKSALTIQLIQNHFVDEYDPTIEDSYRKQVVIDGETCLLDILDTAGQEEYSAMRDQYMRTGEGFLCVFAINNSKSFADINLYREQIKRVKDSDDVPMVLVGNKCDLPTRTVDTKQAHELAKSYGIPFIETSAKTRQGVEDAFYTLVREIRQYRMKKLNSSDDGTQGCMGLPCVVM
Chain of GDP-bound KRAS wild-type protein (P01116 1-188 isoform P01116-2): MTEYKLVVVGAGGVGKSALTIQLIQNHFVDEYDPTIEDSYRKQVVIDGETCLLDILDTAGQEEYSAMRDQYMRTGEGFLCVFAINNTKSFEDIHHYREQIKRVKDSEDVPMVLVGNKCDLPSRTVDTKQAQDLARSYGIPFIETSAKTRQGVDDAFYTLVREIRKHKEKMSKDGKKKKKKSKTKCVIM
Chain of HRAS wild-type protein (P01112 whole entry): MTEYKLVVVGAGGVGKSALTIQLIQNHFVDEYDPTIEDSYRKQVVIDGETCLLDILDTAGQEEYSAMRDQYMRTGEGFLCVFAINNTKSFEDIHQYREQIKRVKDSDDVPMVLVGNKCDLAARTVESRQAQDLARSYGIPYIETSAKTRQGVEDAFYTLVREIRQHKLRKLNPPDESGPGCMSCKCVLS

SMILES	pKd [1, 4]	pIC50 [3]	pKd ([1]; 1:1 binding model)	pKd ([1]; Single Cycle Kinetics)	HRAS /KRAS (HRAS wild-type protein; ratio of KD value for HRAS wild-type protein to KD value for KRAS (SPR))	NRAS /KRAS ([2]; ratio of KD value for GDP-bound NRAS wild-type protein to KD value for KRAS (SPR))	HRAS /KRAS (HRAS wild-type protein; [5])	NRAS /KRAS [2, 6]	HRAS /KRAS (HRAS wild-type protein; [7])	NRAS /KRAS [2, 8]
CCO[C@@H]1C[C@H]2C(=O)NC3(CC(C)(C)C3)C(=O)N(C)[C@@H](C(CC)CC)C(=O)N(C)[C@H](C(=O)N(C)C)CC(=O)N(C)[C@H]3CC/C=C/c4ccc(cc4)C[C@@H](C(=O)N(C)CC(=O)N[C@@H](CCc4ccc(Cl)c(Cl)c4)C(=O)N2C1)N1CC/C=C\C[C@@H](C1=O)N(C)C(=O)CN(C)C(=O)[C@H]([C@@H](C)CC)NC3=O [PP2589]		7.13	9.35				A (a compound having 10 or more and less than 20 is denoted as A)	AA (a compound having 20 or more is denoted as AA)		
CCO[C@@H]1C[C@H]2C(=O)NC3(CCC3)C(=O)N(C)[C@@H](C3CCCC3)C(=O)N(C)[C@H](C(=O)N3CCOCC3)CC(=O)N(C)[C@@H](CC3CCC3)C(=O)N[C@@H]([C@@H](C)CC)C(=O)N(C)CC(=O)N(C)[C@H]3CCCCCN(C3=O)[C@@H](Cc3ccc(C(F)(F)F)cc3)C(=O)N(C)CC(=O)N[C@@H](CCc3cc(F)c(C(F)(F)F)c(F)c3)C(=O)N2C1 [PP0683]	9.21	7.35							B (a compound having 3 or more and less than 10 is denoted as B)	B (a compound having 3 or more and less than 10 is denoted as B)
CCC(CC)[C@H]1C(=O)N(C)[C@H](C(=O)N(C)C)CC(=O)N(C)[C@@H](COC)C(=O)N[C@@H]([C@@H](C)CC)C(=O)N(C)CC(=O)N(C)[C@H]2C/C=C\CCN(C2=O)[C@@H](Cc2ccc(C)cc2)C(=O)N(C)CC(=O)N[C@@H](CCc2ccc(C(F)(F)F)c(OC)c2)C(=O)N2CCOC[C@H]2C(=O)NC2(CC(C)(C)C2)C(=O)N1C [PP2938]		6.98	8.96				A (a compound having 10 or more and less than 20 is denoted as A)	AA (a compound having 20 or more is denoted as AA)		
CCO[C@@H]1C[C@H]2C(=O)NC3(CCC3)C(=O)N(C)[C@@H](C3CCCC3)C(=O)N(C)[C@H](C(=O)N3CCOCC3)CC(=O)N(C)[C@@H](CC(C)C)C(=O)N[C@@H](C3CC(F)(F)C3)C(=O)N(C)CC(=O)N(C)[C@H]3CCCCCN(C3=O)[C@@H](Cc3ccc(C(F)(F)F)cc3)C(=O)N(C)CC(=O)N[C@@H](CCc3cc(F)c(C(F)(F)F)c(F)c3)C(=O)N2C1 [PP0816]		7.03		9.30			B (a compound having 3 or more and less than 10 is denoted as B)	A (a compound having 10 or more and less than 20 is denoted as A)		
CCOC[C@H]1C(=O)N[C@@H]([C@@H](C)CC)C(=O)N(C2CC2)CC(=O)N(C)[C@H]2C/C=C\CCN(C2=O)[C@@H](CC2CCC(F)(F)CC2)C(=O)N(C)CC(=O)N[C@@H](CCc2ccc(C(F)(F)F)c(OC)c2)C(=O)N2C[C@H](OCC)C[C@H]2C(=O)N(C)C2(CCC2)C(=O)N(C)[C@@H](C(CC)CC)C(=O)N(C)[C@H](C(=O)N(C)C)CC(=O)N1C [PP2351]	8.49	6.75							A (a compound having 10 or more and less than 20 is denoted as A)	A (a compound having 10 or more and less than 20 is denoted as A)
CC[C@H](C)[C@@H]1NC(=O)[C@H](CC(C)C)N(C)C(=O)C[C@@H](C(=O)N2C3CCC2COC3)N(C)C(=O)[C@H](C2CCCC2)N(C)C(=O)C2(CCCC2)NC(=O)[C@@H]2CCCN2C(=O)[C@H](CCc2cc(F)c(C(F)(F)F)c(F)c2)NC(=O)CN(C)C(=O)[C@H](Cc2ccc(C(F)(F)F)cc2)N2CCCC[C@@H](C2=O)N(C)C(=O)CN(C)C1=O [PP0573]	9.47	8.06							B (a compound having 3 or more and less than 10 is denoted as B)	B (a compound having 3 or more and less than 10 is denoted as B)
CCCN1C(=O)CN(C)C(=O)[C@@H]2CCN2C(=O)[C@H]([C@@H](C)CC)NC(=O)[C@H](CC(C)C)N(C)C(=O)C[C@@H](C(=O)N2CCOCC2)NC(=O)[C@H](C2CCCC2)N(C)C(=O)C2(CCC2)NC(=O)[C@@H]2CCCN2C(=O)[C@H](CCc2ccc(C(F)(F)F)c(Cl)c2)NC(=O)CN(C)C(=O)[C@@H]1Cc1ccc(C(F)(F)F)cc1 [PP0338] ([NMeL]I[Aze][Sar][NPrPhe(4-CF3)][Sar][hPhe(3-Cl-4-CF3)]P[Ac4c][NMeGly(cPent)]D-Morpholide; lactam N-11)		6.53	8.44				B (a compound having 3 or more and less than 10 is denoted as B)	B (a compound having 3 or more and less than 10 is denoted as B)		
CCC[C@H]1C(=O)N[C@@H]([C@@H](C)CC)C(=O)N(C)CC(=O)N(C)[C@H]2C/C=C\CCN(C2=O)[C@@H](Cc2ccc(C)cc2)C(=O)N(C)CC(=O)N[C@@H](CCc2ccc3ccn(C)c3c2)C(=O)N2C[C@H](OCC)C[C@H]2C(=O)NC2(CC(C)(C)C2)C(=O)N(C)[C@@H](C(CC)CC)C(=O)N(C)[C@H](C(=O)N(C)C)CC(=O)N1C [PP2914]		6.51	7.85				A (a compound having 10 or more and less than 20 is denoted as A)	AA (a compound having 20 or more is denoted as AA)		

The remaining molecules from weak to strong by pIC50 [3], led by results:

pKd [1, 4]	pIC50 [3]	pKd ([1]; 1:1 binding model)	pKd ([1]; Single Cycle Kinetics)	SMILES	HRAS /KRAS (HRAS wild-type protein; ratio of KD value for HRAS wild-type protein to KD value for KRAS (SPR))	NRAS /KRAS ([2]; ratio of KD value for GDP-bound NRAS wild-type protein to KD value for KRAS (SPR))	HRAS /KRAS (HRAS wild-type protein; [5])	NRAS /KRAS [2, 6]	HRAS /KRAS (HRAS wild-type protein; [7])	NRAS /KRAS [2, 8]
	7.42	9.34		CCO[C@@H]1C[C@H]2C(=O)N(C)C3(CC(C)(C)C3)C(=O)N(C)[C@@H](C(CC)CC)C(=O)N(C)[C@H](C(=O)N(C)C)CC(=O)N(C)[C@@H](COC)C(=O)N[C@@H]([C@@H](C)CC)C(=O)N(C)CC(=O)N(C)[C@H]3C/C=C\CCN(C3=O)[C@@H](Cc3ccc(C)cc3)C(=O)N(C)CC(=O)N[C@@H](CCc3ccc(Cl)c(Cl)c3)C(=O)N2C1 [PP2810]			A (a compound having 10 or more and less than 20 is denoted as A)	AA (a compound having 20 or more is denoted as AA)		
9.47	7.69			CCCOC[C@H]1C(=O)N[C@@H]([C@@H](C)CC)C(=O)N(C)CC(=O)N(C)[C@H]2C/C=C\CCN(C2=O)[C@@H](Cc2ccc(C)cc2)C(=O)N(C)CC(=O)N[C@@H](CCc2cc(F)c(C(F)(F)F)c(F)c2)C(=O)N2C[C@H](CCC)C[C@H]2C(=O)NC2(CC(C)(C)C2)C(=O)N(C)[C@@H](C2CCCC2)C(=O)N(C)[C@H](C(=O)N(C)C)CC(=O)N1C [PP2203]					A (a compound having 10 or more and less than 20 is denoted as A)	A (a compound having 10 or more and less than 20 is denoted as A)
	7.84	9.77		CCO[C@@H]1C[C@H]2C(=O)NC3(CC(C)(C)C3)C(=O)N(C)[C@@H](C(CC)CC)C(=O)N(C)[C@H](C(=O)N(C)C)CC(=O)N(C)[C@H]3CC/C=C/c4ccc(cc4)C[C@@H](C(=O)N(C)CC(=O)N[C@@H](CCc4cc(F)c(C(F)(F)F)c(F)c4)C(=O)N2C1)N1CC/C=C\C[C@@H](C1=O)N(C)C(=O)CN(C)C(=O)[C@H]([C@@H](C)CC)NC3=O [PP2586]			B (a compound having 3 or more and less than 10 is denoted as B)	A (a compound having 10 or more and less than 20 is denoted as A)		
	7.95	9.28		CCCN1C(=O)CN(C)C(=O)[C@@H]2[C@@H](C)CN2C(=O)[C@H]([C@@H](C)CC)NC(=O)[C@H](CC(C)C)N(C)C(=O)C[C@@H](C(=O)N2CCOCC2)N(C)C(=O)[C@H](C2CCCC2)N(C)C(=O)C2(CCCC2)NC(=O)[C@@H]2CCCN2C(=O)[C@H](CCc2ccc(C(F)(F)F)c(Cl)c2)NC(=O)CN(C)C(=O)[C@@H]1Cc1ccc(C(F)(F)F)cc1 [PP0258] ([NMeL]I[Aze(3S-Me)][Sar][NPrPhe(4-CF3)][Sar][hPhe(3-Cl-4-CF3)]P[Ac5c][NMeGly(cPent)][NMeD]-Morpholide; lactam N-11)			C (A compound having a KD ratio of 0.1 or more and less than 3 is denoted as C)	B (a compound having 3 or more and less than 10 is denoted as B)		
9.51	8.17			CCO[C@@H]1C[C@H]2C(=O)NC(C)(C)C(=O)N(C)[C@@H](C3CCCC3)C(=O)N(C)[C@H](C(=O)N(C)CC)CC(=O)N(C)[C@@H](CC(C)C)C(=O)N[C@@H]([C@@H](C)CC)C(=O)N(C)CC(=O)N(C)[C@H]3C/C=C\CCN(C3=O)[C@@H](Cc3ccc(C(F)(F)F)cc3)C(=O)N(C)CC(=O)N[C@@H](CCc3cc(F)c(C(F)(F)F)c(F)c3)C(=O)N2C1 [PP1937]					A (a compound having 10 or more and less than 20 is denoted as A)	A (a compound having 10 or more and less than 20 is denoted as A)
10.28	8.44			CCCC[C@H]1C(=O)N[C@@H]([C@@H](C)CC)C(=O)N(C)CC(=O)N(C)[C@H]2C/C=C\CCN(C2=O)[C@@H](Cc2ccc(C(F)(F)F)cc2)C(=O)N(C)CC(=O)N[C@@H](CCc2cc(F)c(C(F)(F)F)c(F)c2)C(=O)N2C[C@H](OCC)C[C@H]2C(=O)NC2(CC(F)(F)C2)C(=O)N(C)[C@@H](C2CCCC2)C(=O)N(C)[C@H](C(=O)N(C)C)CC(=O)N1C [PP1740]	A (a compound having 10 or more and less than 20 is denoted as A)	A (a compound having 10 or more and less than 20 is denoted as A)				
	8.55	10.12		CCO[C@@H]1C[C@H]2C(=O)NC3(CC(C)(C)C3)C(=O)N(C)[C@@H](C3CCCC3)C(=O)N(C)[C@H](C(=O)N(C)C)CC(=O)N(C)[C@@H]([C@@H](C)OC)C(=O)N[C@@H]([C@@H](C)CC)C(=O)N(C)CC(=O)N(C)[C@H]3C/C=C\CCN(C3=O)[C@@H](Cc3ccc(C)cc3)C(=O)N(C)CC(=O)N[C@@H](CCc3cc(F)c(C(F)(F)F)c(F)c3)C(=O)N2C1 [PP3208]			A (a compound having 10 or more and less than 20 is denoted as A)	A (a compound having 10 or more and less than 20 is denoted as A)		
